Read-outs that look alike come from different tables or passages of the source.
Legend:
Format in all cases: cell-based
[1] = tested on: Cutibacterium acnes strain 2 (BWH-002 25541381); assay: Growth of C. acnes strain 2 in RCM with antibacterial agent, optical density
Method: (§1) Seven different strains of Cutibacterium acnes were grown in test tubes in Reinforced Clostridial Medium (RCM). Each strain was divided into different wells of mulita-well plates (96-well and 384-well plates were used). 80 μl was used and a 1:200 dilution from saturated cultures. Either an antibacterial agent or vehicle (as a control) was added to each well. Absorbance was measured and quantified as optical density (OD) as a proxy for cell biomass. The OD was recorded at regular intervals over several hours. […] The OD at 48 hours was estimated by calculating the average OD between 47 and 49 hours, and this value was used for further analyses. OD600 is the OD at 600 nm. The OD is listed in arbitrary units determined by the spectrophotometers. Such OD data was collected for different concentrations of each antibacterial agent. […] The horizontal axis has units of μM (micromoles per liter).

[2] = tested on: Cutibacterium acnes strain 3 (BWH-003 25505801); assay: Growth of C. acnes strain 3 in RCM with antibacterial agent, optical density
Method: as §1

[3] = tested on: Cutibacterium acnes strain 10 (HM-523 (HL053PA2)); assay: Growth of C. acnes strain 10 in RCM with antibacterial agent, optical density
Method: as §1

[4] = tested on: Cutibacterium acnes strain 12 (HM-539 (HL086PA1)); assay: Growth of C. acnes strain 12 in RCM with antibacterial agent, optical density
Method: as §1

[5] = tested on: Cutibacterium acnes strain 13 (HM-552 (HL110PA1)); assay: Growth of C. acnes strain 13 in RCM with antibacterial agent, optical density
Method: as §1

[6] = tested on: Cutibacterium acnes strain 15 (KPL2008); assay: Growth of C. acnes strain 15 in RCM with antibacterial agent, optical density
Method: as §1

[7] = tested on: Cutibacterium acnes strain 16 (KPL1847); assay: Growth of C. acnes strain 16 in RCM with antibacterial agent, optical density
Method: as §1

Cutibacterium acnes = assay: Effect of antibacterial agents on C. acnes, seven strains taken together; settings: across the tested strains
Method: Seven different strains of Cutibacterium acnes were grown in test tubes in Reinforced Clostridial Medium (RCM). Each strain was divided into different wells of mulita-well plates (96-well and 384-well plates were used). 80 μl was used and a 1:200 dilution from saturated cultures. Either an antibacterial agent or vehicle (as a control) was added to each well. Absorbance was measured and quantified as optical density (OD) as a proxy for cell biomass. The OD was recorded at regular intervals over several hours. […] The OD at 48 hours was estimated by calculating the average OD between 47 and 49 hours, and this value was used for further analyses. OD600 is the OD at 600 nm. The OD is listed in arbitrary units determined by the spectrophotometers.
Such OD data was collected for different concentrations of each antibacterial agent. […] The horizontal axis has units of μM (micromoles per liter). Next, IC50 values were calculated by assessing when the OD value was about 0.5.

[8] = strain 2, OD at 48 hours, RCM, read-out: IC50
[9] = strain 3, OD at 48 hours, RCM, read-out: IC50
[10] = strain 10, OD at 48 hours, RCM, read-out: IC50
[11] = strain 12, OD at 48 hours, RCM, read-out: IC50
[12] = strain 13, OD at 48 hours, RCM, read-out: IC50
[13] = strain 15, OD at 48 hours, RCM, read-out: IC50
[14] = strain 16, OD at 48 hours, RCM, read-out: IC50

## CC1(C)S[C@@H]2[C@H](NC(=O)[C@H](N)c3ccc(O)cc3)C(=O)N2[C@H]1C(=O)O [Amoxicillin]
[1]; [8]
  IC50: 0.078 µM
[2]; [9]
  IC50: 0.0098 µM
[3]; [10]
  IC50: 0.078 µM
[4]; [11]
  IC50: 0.039 µM
[5]; [12]
  IC50: 0.019 µM
[6]; [13]
  IC50: 0.16 µM
[7]; [14]
  IC50: 0.31 µM
Cutibacterium acnes
  IC50 values, in words: relatively low IC50 values

## O=C(OOC(=O)c1ccccc1)c1ccccc1 [Benzoyl Peroxide]
[1]; [8]
  IC50: 2560 µM
[2]; [9]
  IC50: > 2560 µM
[3]; [10]
  IC50: 1280 µM
[4]; [11]
  IC50: 2560 µM
[5]; [12]
  IC50: 640 µM
[6]; [13]
  IC50: 640 µM
[7]; [14]
  IC50: 640 µM

## CO/N=C(\C(=O)N[C@@H]1C(=O)N2C(C(=O)[O-])=C(C[N+]3(C)CCCC3)CS[C@H]12)c1csc(N)n1 [Cefepime]
[1]; [8]
  IC50: 0.31 µM
[2]; [9]
  IC50: 2.5 µM
[3]; [10]
  IC50: 0.31 µM
[4]; [11]
  IC50: 0.16 µM
[5]; [12]
  IC50: 0.31 µM
[6]; [13]
  IC50: 2.5 µM
[7]; [14]
  IC50: 2.5 µM

## CO/N=C(\C(=O)N[C@@H]1C(=O)N2C(C(=O)O)=C(CSc3nc(=O)c(=O)[nH]n3C)CS[C@H]12)c1csc(N)n1 [Ceftriaxone]
[1]; [8]
  IC50: 0.0097 µM
[2]; [9]
  IC50: 0.0098 µM
[3]; [10]
  IC50: 0.0098 µM
[4]; [11]
  IC50: 0.0098 µM
[5]; [12]
  IC50: 0.0098 µM
Cutibacterium acnes
  IC50 values, in words: relatively low IC50 values

## C[C@@H](O)[C@H]1C(=O)N2C(C(=O)O)=C(S[C@@H]3CN[C@H](C(=O)Nc4cccc(C(=O)O)c4)C3)[C@H](C)[C@H]12 [Ertapenem]
[1]; [8]
  IC50: 0.039 µM
[2]; [9]
  IC50: 0.16 µM
[3]; [10]
  IC50: 0.078 µM
[4]; [11]
  IC50: 0.0098 µM
[5]; [12]
  IC50: 0.039 µM
[6]; [13]
  IC50: 0.16 µM
[7]; [14]
  IC50: 0.31 µM

## OO [Hydrogen Peroxide]
[1]; [8]
  IC50: 1280 µM
[2]; [9]
  IC50: 2560 µM
[3]; [10]
  IC50: 2560 µM
[4]; [11]
  IC50: 1280 µM
[5]; [12]
  IC50: 640 µM
[6]; [13]
  IC50: 2560 µM
[7]; [14]
  IC50: 2560 µM

## NC[C@H]1O[C@H](O[C@H]2[C@H](O)[C@@H](O[C@H]3O[C@H](CO)[C@@H](O)[C@H](N)[C@H]3O)[C@H](N)C[C@@H]2N)[C@H](O)[C@@H](O)[C@@H]1O [Kanamycin]
[1]; [8]
  IC50: 640 µM
[2]; [9]
  IC50: 80 µM
[3]; [10]
  IC50: 320 µM
[4]; [11]
  IC50: 160 µM
[5]; [12]
  IC50: 320 µM
[6]; [13]
  IC50: 640 µM
[7]; [14]
  IC50: 160 µM

## Cc1ncc([N+](=O)[O-])n1CCO [Metronidazole]
[1]; [8]
  IC50: > 5120 µM
[2]; [9]
  IC50: > 5120 µM
[3]; [10]
  IC50: > 5120 µM
[4]; [11]
  IC50: 5120 µM
[5]; [12]
  IC50: 5120 µM
[6]; [13]
  IC50: 5120 µM
[7]; [14]
  IC50: > 5120 µM

## CN[C@H](CC(C)C)C(=O)N[C@H]1C(=O)N[C@@H](CC(N)=O)C(=O)N[C@H]2C(=O)N[C@H]3C(=O)N[C@H](C(=O)N[C@H](C(=O)O)c4cc(O)cc(O)c4-c4cc3ccc4O)[C@H](O)c3ccc(c(Cl)c3)Oc3cc2cc(c3O[C@@H]2O[C@H](CO)[C@@H](O)[C@H](O)[C@H]2O[C@H]2C[C@](C)(N)[C@H](O)[C@H](C)O2)Oc2ccc(cc2Cl)[C@H]1O [Vancomycin]
[1]; 48 h
  IC50: 0.16 µM
[2]; 48 h
  IC50: 0.15 µM
[3]; 48 h
  IC50: 0.16 µM
[4]; 48 h
  IC50: 0.31 µM
[5]; 48 h
  IC50: 0.16 µM
[6]; 48 h
  IC50: 0.31 µM
[7]; 48 h
  IC50: 0.31 µM

From patent US20240366498A1, “Reducing the Risk of Infection from Bacteria Present in Skin Pores During Surgery” (The Board of Trustees of the Leland Stanford Junior …, priority 2021, published 2024)
